Measured values taken from US20210139507A1, “FUSED PYRIDINES WHICH ACT AS INHIBITORS OF H PGDS” (GlaxoSmithKline Intellectual Property Development Limited, priority 2017, published 2021).

Each molecule was assayed against T1, hematopoietic prostaglandin D synthase (H-PGDS) (Homo sapiens, UniProt O60760) (assay: H-PGDS RapidFire High Throughput Mass Spectrometry Assay). Settings: conversion of PGH2 to PGD2 by human H-PGDS, 10 nM enzyme.
T1 construct: Full length human H-PGDS cDNA (Invitrogen Ultimate ORF IOH13026) was amplified by PCR; 6-His (N); TEV protease cleavage site (N); made in house; host or cells: E. coli BL21 (DE3*), vector pET22b+
T1 sequence (O60760 whole entry): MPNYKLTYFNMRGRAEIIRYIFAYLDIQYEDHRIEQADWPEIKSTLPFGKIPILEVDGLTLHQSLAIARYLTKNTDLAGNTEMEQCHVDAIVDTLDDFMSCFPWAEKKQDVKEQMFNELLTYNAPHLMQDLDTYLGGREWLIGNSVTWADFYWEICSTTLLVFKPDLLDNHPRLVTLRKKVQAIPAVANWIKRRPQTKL
Assay type: biochemical
Experimental: The H-PGDS RapidFire™ mass spectrometric assay monitors conversion of prostaglandin H2 (PGH2) to prostaglandin D2 (PGD2) by hematopoietic prostaglandin D synthase (H-PGDS). In the assay format described here, the substrate (PGH2) is formed in situ by the action of cyclooxygenase-2 on arachidonic acid. This first step is set up to be fast, and generates a burst of PGH2 at ˜10 μM. The PGH2 is then further converted to PGD2 by the H-PGDS enzyme. […] Plates are then read on the RapidFire™ high throughput solid phase extraction system (Agilent) which incorporates a solid phase extraction step coupled to a triple quadrupole mass spectrometer (AB SCIEX). Relative levels of PGD2 and PGF2α, which acts as a surrogate for substrate, are measured and a percent conversion calculated. Inhibitors are characterized as compounds which lower the conversion of PGH2 to PGD2.
Full length human H-PGDS cDNA (Invitrogen Ultimate ORF IOH13026) was amplified by PCR with the addition of a 5′ 6-His tag and TEV protease cleavage site. The PCR product was digested with NdeI and XhoI and ligated into pET22b+ (Merck Novagen®). Expression was carried out in E. coli strain BL21 (DE3*) using auto-induction Overnight Express™ Instant TB medium (Merck Novagen®) supplemented with 1% glycerol. The culture was first grown at 37° C. and the temperature was reduced to 25° C. when OD600 reached 2.0. Cells were harvested by centrifugation after a further 18 hours. 10 g of E. coli cell pellet was suspended to a total volume of 80 mL in lysis buffer (20 mM Tris-Cl pH 7.5, 300 mM NaCl, 20 mM imidazole, 5 mM β-mercaptoethanol, 10% glycerol). 1 mg/mL protease inhibitors (Protease Inhibitor Cocktail Set III, Merck Calbiochem®) and 1 mg/mL lysozyme were added to the cell suspension. The suspension was then sonicated for 5 min (Ultrasonic Processor VCX 750, Cole-Parmer Instrument Co.) with a micro probe (50% amplitude, 10 sec on/off) and then centrifuged at 100,000 g for 90 minutes (at 4° C.). The supernatant was loaded onto a Ni-NTA HiTrap column (5 mL, GE Healthcare, pre-equilibrated in lysis buffer). The column was washed with 10 column volumes of lysis buffer and eluted with lysis buffer containing 500 mM imidazole. The pooled protein peak fractions were concentrated using a 10 kDa centrifugal filter at 3500 g and 4° C. (Amicon Ultra-15 centrifugal filter unit with Ultracel-10 membrane from Millipore). Further purification of the concentrated protein was carried out using gel filtration chromatography on a HiLoad 26/600 Superdex75 preparative grade column (GE Healthcare Life Sciences) using 50 mM Tris pH 7.5, 50 mM NaCl, 1 mM dithiothreitol, 1 mM MgCl2. Fractions containing the protein were pooled, concentrated as described above, and stored at −80° C.
The full length human COX-2 gene (accession number L15326) was amplified by PCR to generate an EcoRI-Hindi 11 fragment containing an in-frame FLAG tag. This was subcloned into pFastBac 1 (Invitrogen). The COX-2 FLAG plasmid was recombined into the baculovirus genome according to the BAC-to-BAC protocol described by Invitrogen. Transfection into Spodoptera frugiperda (Sf9) insect cells was performed using Cellfectin (Invitrogen), according to the manufacturer's protocol. Super Sf9 cells were cultured in EX420 media (SAFC Biosciences) to a density of approximately 1.5×10^6 cells/mL within a wave bioreactor. Recombinant virus was added at a Multiplicity of Infection (MOI) of 5 and the culture was allowed to continue for 3 days. Cells were harvested using a continuous feed centrifuge run at 2500 g at a rate of approximately 2 L/min with cooling. The resultant cell slurry was re-centrifuged in pots (2500 g, 20 min, 4° C.) and the cell paste was stored at −80° C. 342 g of cell paste was re-suspended to a final volume of 1600 mL in a buffer of 20 mM Tris-Cl pH 7.4, 150 mM NaCl, 0.1 mM EDTA, 1.3% w/v n-octyl-β-D-glucopyranoside containing 20 Complete EDTA-free Protease Inhibitor Cocktail tablets (Roche Applied Science). […]

Molecule	Potency Range (mean pIC50)
N-(trans-4-(2-Hydroxypropan-2-yl)cyclohexyl)-2-((1S,2R)-2-methylcyclopropyl)thieno[3,2-b]pyridine-6-carboxamide and N-(trans-4-(2-hydroxypropan-2-yl)cyclohexyl)-2-((1R,2S)-2-methylcyclopropyl)thieno[3,2-b]pyridine-6-carboxamide [Example 10]	*** (*** = pIC50 7.1-8.0)

Same assay, conditions: conversion of PGH2 to PGD2 by human H-PGDS, 10 nM enzyme; mean pIC50; read-out: Potency Range (mean pIC50) (converted)

Molecule	IC50 [nM]
CC(C)(O)[C@H]1CC[C@H](NC(=O)c2cnc3nc(C4CC4)sc3c2)CC1 [Example 8]	10 to 79.4
CC(C)c1nc2ncc(C(=O)N[C@H]3CC[C@H](C(C)(C)O)CC3)cc2s1 [Example 30, N-(trans-4-(2-Hydroxypropan-2-yl)cyclohexyl)-2-isopropylthiazolo[4,5-b]pyridine-6-carboxamide]	100 to 1000
Cn1nnnc1N1CCC(NC(=O)c2cnc3nc(C4CC4)sc3c2)CC1 [Example 31, 2-Cyclopropyl-N-(1-(1-methyl-1H-tetrazol-5-yl)piperidin-4-yl)thiazolo[4,5-b]pyridine-6-carboxamide]	100 to 1000
CC(C)(O)[C@H]1CC[C@H](NC(=O)c2cnc3nc(N4CCCC4)sc3c2)CC1 [Example 33, N-(trans-4-(2-Hydroxypropan-2-yl)cyclohexyl)-2-(pyrrolidin-1-yl)thiazolo[4,5-b]pyridine-6-carboxamide]	100 to 1000
C[C@H]1CCN1c1nc2ncc(C(=O)N[C@H]3CC[C@H](C(C)(C)O)CC3)cc2s1 [Example 34, N-(trans-4-(2-Hydroxypropan-2-yl)cyclohexyl)-2-((S)-2-methylazetidin-1-yl)thiazolo[4,5-b]pyridine-6-carboxamide]	10 to 79.4
CN(c1nc2ncc(C(=O)N[C@H]3CC[C@H](C(C)(C)O)CC3)cc2s1)C1CC1 [Example 35, 2-(Cyclopropyl(methyl)amino)-N-(trans-4-(2-hydroxypropan-2-yl)cyclohexyl)thiazolo[4,5-b]pyridine-6-carboxamide]	100 to 1000
CC(C)(O)[C@H]1CC[C@H](NC(=O)c2cnc3nc(N(C4CC4)C4CC4)sc3c2)CC1 [Example 36, 2-(Dicyclopropylamino)-N-(trans-4-(2-hydroxypropan-2-yl)cyclohexyl)thiazolo[4,5-b]pyridine-6-carboxamide]	1260 to 10000
CC(C)N(c1nc2ncc(C(=O)N[C@H]3CC[C@H](C(C)(C)O)CC3)cc2s1)C(C)C [Example 37, 2-(Diisopropylamino)-N-(trans-4-(2-hydroxypropan-2-yl)cyclohexyl)thiazolo[4,5-b]pyridine-6-carboxamide]	1260 to 10000
CN(c1nc2ncc(C(=O)N[C@H]3CC[C@H](C(C)(C)O)CC3)cc2s1)C(C)(C)C [Example 38, 2-(tert-Butyl(methyl)amino)-N-(trans-4-(2-hydroxypropan-2-yl)cyclohexyl)thiazolo[4,5-b]pyridine-6-carboxamide]	100 to 1000
CSc1nc2ncc(C(=O)N[C@H]3CC[C@H](C(C)(C)O)CC3)cc2s1 [Example 39, N-((trans)-4-(2-Hydroxypropan-2-yl)cyclohexyl)-2-(methylthio)thiazolo[4,5-b]pyridine-6-carboxamide]	10 to 79.4
COc1nc2ncc(C(=O)N[C@H]3CC[C@H](C(C)(C)O)CC3)cc2s1 [Example 40, N-((trans)-4-(2-Hydroxypropan-2-yl)cyclohexyl)-2-methoxythiazolo[4,5-b]pyridine-6-carboxamide]	100 to 1000

These molecules were tested on male mdx mice (assay: In vivo assay for functional response to muscle injury (eccentric contraction-induced muscle fatigue)). Settings: 7 months of age, PO 0.1, 1 and 10 mg/kg QD beginning 10 min prior to challenge, versus vehicle, FIG. 1.
Design: species or system mouse
Text: Under anesthesia, the right hind limb of a mouse is restrained at the knee and the foot attached to a motorized footplate/force transducer. Needle electrodes are inserted into the upper limb, either side of the sciatic nerve and a current sufficient to elicit a maximal muscle contraction is applied. Muscle tension is produced by moving the footplate to lengthen the plantarflexor muscles while the limb is under maximal stimulation. This is repeated 60 times to fatigue the muscles of the lower limb. Anesthesia, limb immobilization and limb stimulation are then repeated at regular intervals to measure maximal isometric force in the recovering limb. 7 to 9 animals are tested for each test condition.

Molecule	kinetics of recovery of maximal isometric torque after eccentric contraction challenge
CC(C)(O)[C@H]1CC[C@H](NC(=O)c2cnc3nc(C4CC4)sc3c2)CC1 [Example 8]	exhibited an acceleration in the kinetics of recovery
